Measured values from US9872861B2, “Methods of treatment using selective Bcl-2 inhibitors” (AbbVie Inc., priority 2010, dated 2018).
Where two headings read alike, the source gives them in different places.

Tests used:
[1] = tested on: RS4;11 cells; experiment: Cellular efficacy in Bcl-2 dependent tumor cell line RS4;11; assay type: cell-based, human; settings: 10% HS
[2] = tested on: IgG anti-ds DNA; experiment: Anti-ds DNA titer by ELISA in IFNα-accelerated lupus model; assay type: in vivo, (NZB×NZW)F1 mice; settings: interferon-induced model, 3-30 mg/kg
Description: An additional experiment was performed to determine the effects of treatment with a selective Bcl-2 inhibitor on anti-DS DNA titer in the Interferon-α accelerated lupus model. Anti-dsDNA antibody levels were measured by ELISA and assigned arbitrary activity unit concentrations per ml relative to a standard plasma pool derived from proteinuric 9-10 month old NZB/W mice. ELISA assay was performed by coating plates with poly-L-lysine followed by calf-thymus DNA. Diluted mouse plasma was incubated and developed using anti-IgG HRP conjugated antibodies and the mean OD from duplicate wells was compared to a titrated standard curve of pooled high tittered anti-dsDNA plasma. The undiluted standard plasma pool was arbitrarily assigned a value of 1000 anti-dsDNA Units/ml. A linear regression analysis was then used to calculate the relative units of a given sample multiplied by the given dilution factor. The results of this experiment are illustrated in FIG. 10.

[3] = tested on: FL5.12-Bcl-2 cells; experiment: Cellular efficacy in FL5.12 cells dependent on Bcl-2; assay type: cell-based, murine; settings: Mus musculus, 3% FBS
[4] = Exposure in spontaneous lupus model; assay type: in vivo; settings: 30 mg/kg dosing
Excerpt: When mice became moribund, they were sacrificed according to Institutional Animal Care and Use Committee protocols.

[5] = tested on: submandibular salivary gland; experiment: Salivary gland histology in spontaneous murine model of lupus; assay type: in vivo, (NZB×NZW)F1 mice
Excerpt: It is recognized within the art that Sjogren's Syndrome is a chronic disease state that affects the moisture-producing glands of the body, including the salivary glands of the mouth. As such, it was theorized that penetration of the selective Bcl-2 inhibitors into the salivary glands of patients with Sjogren's Syndrome could provide an effective treatment to decrease lymphocytes associated with Sjogren's Syndrome, without the dose-limiting thrombocytopenia associated with non-selective Bcl-2 inhibition. A histologic assessment of the penetration of selective Bcl-2 inhibitors into the salivary glands of spontaneous murine model for lupus was performed to test this theory. The spontaneous murine model of lupus, as described in Example 3, was used for the histological assessment described herein. Specifically, sublingual and submandibular salivary glands were fixed in 10% neutral-buffered formalin and paraffin embedded. Five μm sections were H&E stained and semiquantitatively scored (0-4) by an experienced pathologist for inflammatory cell infiltrates. Salivary gland infiltrate scoring categories: (1) 3 or fewer small periductular foci, (2) 3 or more medium sized foci, (3) several extensive foci, and (4) coalescing to diffuse infiltrates. The histologic assessment of the submandibular tissue sections is illustrated in FIG. 11.

[6] = tested on: peripheral blood immune cells and platelets; experiment: Peripheral blood lymphocytes and platelets in (NZB×NZW)F1 mice, Cell Dyn hematology analyzer; assay type: in vivo; settings: (NZB×NZW)F1 mice, four days, orally every day
[7] = tested on: peripheral blood immune cells; experiment: Peripheral blood lymphocytes in C57BL/6 mice, Cell Dyn hematology analyzer; assay type: in vivo; settings: for inhibition in vivo at 100 mg/kg: Mus musculus, Lymphocyte
Description: The effect of the Bcl-2 selective/Bcl-XL sparing compounds on peripheral blood immune cells was also evaluated in C57BL/6 mice. Mice were treated four days with individual compounds (100 mg/kg, orally every day) and cell numbers were measured with a Cell Dyn hematology analyzer.

CC1(C)CCC(CN2CCN(c3ccc(C(=O)NS(=O)(=O)c4ccc(NCC5CCOCC5)c([N+](=O)[O-])c4)c(Oc4cnc5[nH]ccc5c4)c3)CC2)=C(c2ccc(Cl)cc2)C1 [Compound 1, 4-(4-{[2-(4-chlorophenyl)-4,4-dimethylcyclohex-1-en-1-yl]methyl}piperazin-1-yl)-N-({3-nitro-4-[(tetrahydro-2H-pyran-4-ylmethyl)amino]phenyl}sulfonyl)-2-(1H-pyrrolo[2,3-b]pyridin-5-yloxy)benzamide]
EC50 [1]: 12 nM
anti-ds DNA titer [2]: did not significantly inhibit
EC50 [3]: 4 nM
exposure [4]: 40000 ng·h/mL
submandibular salivary gland histology scores vs untreated ([5]; 30 mg/kg and 100 mg/kg): statistically significant improvement
salivary gland histology score ([5]; 30 mg/kg and 100 mg/kg, scale 0-4, untreated mice 3-4): 1-2
salivary gland infiltrates ([5]; 30 or 100 mg/kg): small, discrete and less frequent
lymphocytes in peripheral blood [6]: dose dependent decrease in lymphocytes
platelet counts [6]: maintaining normal platelet counts
Day 1 Lymphocytes ([7]; 1 oral dose of 100 mg/kg): 1.38 ×10^6
Day 4 lymphocytes ([7]; 4 oral doses of 100 mg/kg): 1.32 ×10^6
inhibition in vivo at 100 mg/kg ([7]; 24 h, 1 oral dose of 100 mg/kg, read-out: Day 1 % Reduction vs. Vehicle): 83%
inhibition in vivo at 100 mg/kg ([7]; 96 h, 4 oral doses of 100 mg/kg, read-out: Day 4 % Reduction vs. Vehicle): 83%
